Assay [1] has as its target T1, human recombinant FAAH (Homo sapiens, UniProt O00519).
T1 construct: purchased Cayman Chemical (Ann Arbor, Mich.)
T1 sequence (O00519 1-579): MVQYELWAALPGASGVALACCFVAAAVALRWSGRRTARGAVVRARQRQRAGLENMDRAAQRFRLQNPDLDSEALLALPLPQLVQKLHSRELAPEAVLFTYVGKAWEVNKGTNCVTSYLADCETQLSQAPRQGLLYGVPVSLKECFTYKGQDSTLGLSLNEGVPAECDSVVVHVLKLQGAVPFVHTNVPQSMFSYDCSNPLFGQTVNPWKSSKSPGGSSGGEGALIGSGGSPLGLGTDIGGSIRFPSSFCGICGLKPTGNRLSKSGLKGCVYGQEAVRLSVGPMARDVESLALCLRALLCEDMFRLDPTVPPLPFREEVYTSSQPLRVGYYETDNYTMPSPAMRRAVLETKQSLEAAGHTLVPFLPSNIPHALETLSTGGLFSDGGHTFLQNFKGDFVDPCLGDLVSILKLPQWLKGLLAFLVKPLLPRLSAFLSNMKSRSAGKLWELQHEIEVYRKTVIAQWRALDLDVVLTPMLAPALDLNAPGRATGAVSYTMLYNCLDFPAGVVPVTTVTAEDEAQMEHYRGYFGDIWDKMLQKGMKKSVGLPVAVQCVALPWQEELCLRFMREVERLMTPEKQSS
Briefly: biochemical.

The subject of assay [2] is rabbit corneas. Format: cell-based.
In assay [3] the target is MMP-9 (Homo sapiens, UniProt P14780). Briefly: biochemical.

Results on eight compounds are retold here after US9422233B2 (priority 2011, dated 2016).

MMP-9, sequence (P14780 94-707, species assumed): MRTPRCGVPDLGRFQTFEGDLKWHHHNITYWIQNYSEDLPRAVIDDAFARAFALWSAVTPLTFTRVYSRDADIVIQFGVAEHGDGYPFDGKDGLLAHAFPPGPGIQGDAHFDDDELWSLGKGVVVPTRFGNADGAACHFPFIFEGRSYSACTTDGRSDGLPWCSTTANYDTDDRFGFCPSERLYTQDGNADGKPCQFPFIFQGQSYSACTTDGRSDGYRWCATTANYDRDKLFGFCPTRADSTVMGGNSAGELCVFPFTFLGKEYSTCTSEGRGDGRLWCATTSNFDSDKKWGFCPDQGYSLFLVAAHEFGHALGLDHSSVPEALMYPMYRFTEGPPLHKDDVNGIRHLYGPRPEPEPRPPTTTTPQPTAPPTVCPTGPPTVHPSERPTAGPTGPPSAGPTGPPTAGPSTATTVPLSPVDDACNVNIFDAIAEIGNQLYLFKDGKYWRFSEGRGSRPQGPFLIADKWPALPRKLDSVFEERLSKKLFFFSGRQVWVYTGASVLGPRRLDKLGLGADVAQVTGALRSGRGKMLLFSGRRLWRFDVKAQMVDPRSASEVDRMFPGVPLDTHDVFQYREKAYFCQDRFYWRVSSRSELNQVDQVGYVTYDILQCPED

In general, IC50 refers to the concentration at which inhibition is half-maximal. In the case of `CCCCCCCC/C=C\CCCCCCCC(=O)N(O)Cc1ccc(O)c(OC)c1` [Compound 5a, (9Z)—N-Hydroxy-N-[(4-hydroxy-3-methoxyphenyl)methyl]-9-Octadecenamide], the IC50 in assay [1] worked out at 71 µM. In assay [2], the “basement membrane attached post-treatment” value is 70% and the “epithelial-stromal separation (detachment)” value turned out to be 30%.
`CCCCCCCCN(O)C(=O)Cc1ccc(O)c(OC)c1` [Compound 10b, N-octyl-N-hydroxy-2-(4-hydroxy-3-methoxyphenyl)acetamide] yielded a concentration for half-maximal inhibition (IC50) in assay [3] of 68 µM. Further, in assay [2], the “basement membrane attached post-treatment” value is 85% and the “epithelial-stromal separation (detachment)” value was found to be 15%.
In the case of `CCCCCCCCC(CCCCCC)C(=O)N(O)Cc1ccc(O)c(OC)c1` (stereo not drawn) [Compound 5c, 2-hexyl-N-hydroxy-N-(4-hydroxy-3-methoxybenzyl)decanamide], the IC50 in assay [3] turned out to be 99 µM.
For the compound `COc1cc(CN(O)C(=O)Oc2ccccc2)ccc1O` [Compound 4g, Phenyl-N-hydroxy(4-hydroxy-3-methoxybenzyl)carbamate], in assay [1], the IC50 worked out at 10 µM.
On the same count and under the same terms, for `CCCCCCCCCCCCOC(=O)N(O)Cc1ccc(O)c(OC)c1` [Compound 4b, Dodecyl-N-hydroxy(4-hydroxy-3-methoxybenzyl)carbamate] the value was 67 µM.
With `CCCCCCCCCCCCCCCCOC(=O)N(O)Cc1ccc(O)c(OC)c1` [Compound 4a, Hexadecyl-N-hydroxy(4-hydroxy-3-methoxybenzyl)carbamate], the 50% inhibitory concentration (IC50) in assay [3] came out at 120 µM.
As for `CCCCCCCN(O)C(=O)Cc1ccc(O)c(OC)c1` [Compound 10a, N-heptyl-N-hydroxy-2-(4-hydroxy-3-methoxyphenyl)acetamide], in assay [1], the IC50 turned out to be 192 µM.
Same read-out and setting: for `CCCCCCCCOC(=O)N(O)Cc1ccc(O)c(OC)c1` [Compound 4c, Octyl-N-hydroxy(4-hydroxy-3-methoxybenzyl)carbamate] the value was 73 µM.
